# Reference: patent US5679695A, “Aryl and heteroaryl compounds having anti-retrovirus activity” (The University of Connecticut, priority 1995, dated 1997)
# Columns and labels:
# SC-1 cells = assay: Dye conversion (MTT formazan) assay of drug-induced cytotoxicity; assay type: cell-based; details: 570 nm
# Protocol: (§1) A dye conversion assay to determine drug-induced cytotoxicity was performed. This assay is based on the conversion of MTT to a formazan product in living cells. This conversion results in a color change which can be detected spectrophotometrically. A 96-well tissue culture plate was seeded with […] per well at the time that the 6-well plates were seeded for the UV-XC plaque assay. The following day, the medium was decanted and the cell control cultures received 100 ul of medium. The drug controls received 80 ul of drug and 20 ul of medium such that the final concentration of drug was equivalent to that used in the 6-well plates. On day 3 after addition of the drug, 50 ul of a 2 mg/ml solution of MTT in EMEM with 5% heat-inactivated FBS were added each well. The culture was incubated for 7 hours and 100 ul of a 10% SDS: 0.01 N HCL solution was added to each well. The culture was incubated overnight and the following morning the optical density (O.D.) was read at 570 nm wavelength on a Perkin-Elmer spectrophotometer. The percent reduction in the drug-treated cell. O.D. reading compared to the control cell O.D. reading was calculated.
# (§2) Using the procedure, the following data is generated from representative compounds of the presnet invention.
# [1] = as above; assay type: cell-based; details: mouse, sc-1 cells; for cytotoxicity at 72 h, 1000 µM / viability at 72 h, 1000 µM: 1 × 10^-3 M; for cytotoxicity at 72 h, 1000 µM / cytotoxicity at 72 h, 100 µM / cytotoxicity at 72 h, 10 µM / cytotoxicity at 72 h, 1 µM / cytotoxicity at 72 h, 0.1 µM / cytotoxicity at 72 h, 0.01 µM: read-out: % Reduction; for viability at 72 h, 1000 µM / viability at 72 h, 100 µM / viability at 72 h, 10 µM / viability at 72 h, 1 µM / viability at 72 h, 0.1 µM / viability at 72 h, 0.01 µM: read-out: % of Control; for cytotoxicity at 72 h, 100 µM / viability at 72 h, 100 µM: 1 × 10^-4 M; for cytotoxicity at 72 h, 10 µM / viability at 72 h, 10 µM: 1 × 10^-5 M; for cytotoxicity at 72 h, 1 µM / viability at 72 h, 1 µM: 1 × 10^-6 M; for cytotoxicity at 72 h, 0.1 µM / viability at 72 h, 0.1 µM: 1 × 10^-7 M; for cytotoxicity at 72 h, 0.01 µM / viability at 72 h, 0.01 µM: 1 × 10^-8 M
# Protocol: as §1, §2
# LP-BM5 MuLV = LP-BM5 MuLV UV-XC plaque assay; assay type: cell-based, Murine Leukemia Virus; details: for inhibition at 100 µM / inhibition at 10 µM / inhibition at 1 µM / inhibition at 0.1 µM / inhibition at 0.01 µM: Murine leukemia virus, SC-1, read-out: % Plaque Reduction
# Protocol: One such method is used to determine the effectiveness of representative compounds and compositions of the present invention in the Rauscher and LP-BMS Murine Leukemia Virus (MLV) In Vitro Assays.
# SC-1 cells were grown as monolayers in 6-well tissue culture plates (Falcon). The a test compound was added to the cultures at the time of virus inoculation (approximately 24 hours after the cells were seeded) and was present for 3 days, at which time the cultures were irradiated with UV light. All compounds were solubilized in DMSO prior to dilution in grown medium. The highest concentration of DMSO present in the cultures was 0.05%. The test cultures (triplicate cultures per drug concentrate) each contained 2 ml of test compound diluted in growth medium (Eagle's minimum) essential medium (EMEM) supplemented with 5% heat-inactivated fetal bovine serum (FBS) and 0.5 ml of the virus suspension diluted to produce a countable number of plaques per well. The six virus control cultures contained 2 ml of medium and 0.5 ml of the virus suspension. NSC606170(ddC) was included as a positive control. drug. Drug cytotoxicity control cultures (containing test compound) but no virus and cell control culture (containing no test compound) or virus were included in the assay. On day 3 post-virus inoculation, the cultures were irradiated and XC cells were added. Three days after V-irradiation, the cultures were fixed with formalin and stained with 0.1% crystal violet. The plaques were counted with the aid of a dissection microscope.
# as §2
# HIV-1 = assay: XTT assay of protection from HIV-1 cytopathic effect, infected, CEM-IW; assay type: cell-based, Human Immunodeficiency Virus; details: Human immunodeficiency virus 1, CEM-IW, summary table; read-out: CEM-IW EC50
# Protocol: Another assay for testing the efficacy of the compounds is the procedure* used in the National Cancer Institute's test for agents active against Human Immunodeficiency Virus (HIV). It is designed to detect agents acting at any stage of the virus reproductive cycle. The assay basically involves the killing of T4 lymphocytes by HIV. Small amounts of HIV are added to cells, and a complete cycle of virus reproduction is necessary to obtain the required cell killing. Agents that interact with virions, cells, or virus gene-products to interfere with viral activities will protect cells from cytolysis. The system is automated in several features to accommodate large numbers of candidate agents and is generally designed to detect anti-HIV activity. However, compounds that degenerate, or are rapidly metabolized in the culture conditions may not show activity in this screen. All tests are compared with at least one positive (e.g., AZT-treated) control done at the same time under identical conditions.
# * Weislow. O. W., Kiser, R., Fine, D., Bader, J., Shoemaker, R. H., Boyd, M. R.: New soluble-formazan assay for HIV-1 cytopathic effects: application to high-flux screening of synthetic and natural products for AIDS-antiviral activity. J. Natl. Cancer Inst. 81:577-586, 1989.
# 1. The Candidate agent is dissolved in dimethyl sulfoxide (unless otherwise instructed) then diluted 1:100 in cell culture medium before preparing serial half-log10 dilutions. T4 lymphocytes (CEM cell line) are added and after a brief interval HIV-1 added, resulting in a 1:200 final dilution of the compound. Uninfected cells with the compound serve as a toxicity control, and infected and uninfected cells without compound serve as basic controls.
# 2. Cultures are incubated at 37° in a 5% carbon dioxide atmosphere for 6 days.
# 3. The tetrazolium salt, XTT, is added to all wells, and cultures are incubated to allow formazan color development by viable cells.
# 4. Individual wells are analyzed spectrophotometrically to quantitate formazan production, and in addition are viewed microscopically for detection of viable cells and confirmation of protective activity.
# 5. Drug-treated virus-infected cells are compared with drug-treated noninfected cells and with other appropriate controls (untreated infected and untreated noninfected: cells, drug-containing wells without cells, etc.) on the same plate.
# 6. Data are reviewed in comparison with other tests done at the same time and a determination about activity is made.
structure (smiles),measurement,setting,value
"Cc1ccc(S(=O)(=O)c2ccccc2[N+](=O)[O-])cc1 [Compound 2, 1-(4-Methylphenylsulfonyl)-2-nitrobenzene]",O.D. Reading,SC-1 cells; 1 × 10^-3 M,1.066
same,O.D. Reading,SC-1 cells; 1 × 10^-4 M,1.345
same,O.D. Reading,SC-1 cells; 1 × 10^-5 M,1.425
same,O.D. Reading,SC-1 cells; 1 × 10^-6 M,1.418
same,O.D. Reading,SC-1 cells; 1 × 10^-7 M,1.429
same,O.D. Reading,SC-1 cells; 1 × 10^-8 M,1.411
same,"cytotoxicity at 72 h, 1000 µM",[1],31%
same,"viability at 72 h, 1000 µM",[1],69%
same,"cytotoxicity at 72 h, 100 µM",[1],13%
same,"viability at 72 h, 100 µM",[1],87%
same,"cytotoxicity at 72 h, 10 µM",[1],8%
same,"viability at 72 h, 10 µM",[1],92%
same,"cytotoxicity at 72 h, 1 µM",[1],8%
same,"viability at 72 h, 1 µM",[1],92%
same,"cytotoxicity at 72 h, 0.1 µM",[1],8%
same,"viability at 72 h, 0.1 µM",[1],92%
same,"cytotoxicity at 72 h, 0.01 µM",[1],9%
same,"viability at 72 h, 0.01 µM",[1],91%
same,Mean plaque count,LP-BM5 MuLV; 1 × 10^-3 M,130
same,"Plaque count, replicate #1",LP-BM5 MuLV; 1 × 10^-3 M,162
same,"Plaque count, replicate #2",LP-BM5 MuLV; 1 × 10^-3 M,123
same,"Plaque count, replicate #3",LP-BM5 MuLV; 1 × 10^-3 M,104
same,Mean plaque count,LP-BM5 MuLV; 1 × 10^-4 M,50
same,"Plaque count, replicate #1",LP-BM5 MuLV; 1 × 10^-4 M,43
same,"Plaque count, replicate #2",LP-BM5 MuLV; 1 × 10^-4 M,37
same,"Plaque count, replicate #3",LP-BM5 MuLV; 1 × 10^-4 M,70
same,Mean plaque count,LP-BM5 MuLV; 1 × 10^-5 M,245
same,"Plaque count, replicate #1",LP-BM5 MuLV; 1 × 10^-5 M,265
same,"Plaque count, replicate #2",LP-BM5 MuLV; 1 × 10^-5 M,204
same,"Plaque count, replicate #3",LP-BM5 MuLV; 1 × 10^-5 M,267
same,Mean plaque count,LP-BM5 MuLV; 1 × 10^-6 M,264
same,"Plaque count, replicate #1",LP-BM5 MuLV; 1 × 10^-6 M,270
same,"Plaque count, replicate #2",LP-BM5 MuLV; 1 × 10^-6 M,217
same,"Plaque count, replicate #3",LP-BM5 MuLV; 1 × 10^-6 M,304
same,Mean plaque count,LP-BM5 MuLV; 1 × 10^-7 M,299
same,"Plaque count, replicate #1",LP-BM5 MuLV; 1 × 10^-7 M,327
same,"Plaque count, replicate #2",LP-BM5 MuLV; 1 × 10^-7 M,269
same,"Plaque count, replicate #3",LP-BM5 MuLV; 1 × 10^-7 M,301
same,Mean plaque count,LP-BM5 MuLV; 1 × 10^-8 M,318
same,"Plaque count, replicate #1",LP-BM5 MuLV; 1 × 10^-8 M,299
same,"Plaque count, replicate #2",LP-BM5 MuLV; 1 × 10^-8 M,340
same,"Plaque count, replicate #3",LP-BM5 MuLV; 1 × 10^-8 M,314
same,inhibition at 100 µM,LP-BM5 MuLV; 1 × 10^-4 M,82%
same,inhibition at 10 µM,LP-BM5 MuLV; 1 × 10^-5 M,14%
same,inhibition at 1 µM,LP-BM5 MuLV; 1 × 10^-6 M,8%
same,inhibition at 0.1 µM,LP-BM5 MuLV; 1 × 10^-7 M,0%
same,inhibition at 0.01 µM,LP-BM5 MuLV; 1 × 10^-8 M,0%
same,EC50,HIV-1,14.5 µM
"O=[N+]([O-])c1ccccc1S(=O)(=O)c1ccccc1 [Compound 1, 1-Nitro-2-(phenylsulfonyl)benzene]",O.D. Reading,SC-1 cells; 1 × 10^-3 M,0.851
same,O.D. Reading,SC-1 cells; 1 × 10^-4 M,1.320
same,O.D. Reading,SC-1 cells; 1 × 10^-5 M,1.504
same,O.D. Reading,SC-1 cells; 1 × 10^-6 M,1.522
same,O.D. Reading,SC-1 cells; 1 × 10^-7 M,1.566
same,O.D. Reading,SC-1 cells; 1 × 10^-8 M,1.530
same,"cytotoxicity at 72 h, 1000 µM",[1],45%
same,"viability at 72 h, 1000 µM",[1],55%
same,"cytotoxicity at 72 h, 100 µM",[1],15%
same,"viability at 72 h, 100 µM",[1],85%
same,"cytotoxicity at 72 h, 10 µM",[1],3%
same,"viability at 72 h, 10 µM",[1],97%
same,"cytotoxicity at 72 h, 1 µM",[1],2%
same,"viability at 72 h, 1 µM",[1],98%
same,"cytotoxicity at 72 h, 0.1 µM",[1],0%
same,"viability at 72 h, 0.1 µM",[1],101%
same,"cytotoxicity at 72 h, 0.01 µM",[1],1%
same,"viability at 72 h, 0.01 µM",[1],99%
same,Mean plaque count,LP-BM5 MuLV; 1 × 10^-4 M,254
same,"Plaque count, replicate #1",LP-BM5 MuLV; 1 × 10^-4 M,219
same,"Plaque count, replicate #2",LP-BM5 MuLV; 1 × 10^-4 M,216
same,"Plaque count, replicate #3",LP-BM5 MuLV; 1 × 10^-4 M,328
same,Mean plaque count,LP-BM5 MuLV; 1 × 10^-5 M,261
same,"Plaque count, replicate #1",LP-BM5 MuLV; 1 × 10^-5 M,335
same,"Plaque count, replicate #2",LP-BM5 MuLV; 1 × 10^-5 M,216
same,"Plaque count, replicate #3",LP-BM5 MuLV; 1 × 10^-5 M,232
same,Mean plaque count,LP-BM5 MuLV; 1 × 10^-6 M,255
same,"Plaque count, replicate #1",LP-BM5 MuLV; 1 × 10^-6 M,337
same,"Plaque count, replicate #2",LP-BM5 MuLV; 1 × 10^-6 M,218
same,"Plaque count, replicate #3",LP-BM5 MuLV; 1 × 10^-6 M,210
same,Mean plaque count,LP-BM5 MuLV; 1 × 10^-7 M,207
same,"Plaque count, replicate #1",LP-BM5 MuLV; 1 × 10^-7 M,201
same,"Plaque count, replicate #2",LP-BM5 MuLV; 1 × 10^-7 M,192
same,"Plaque count, replicate #3",LP-BM5 MuLV; 1 × 10^-7 M,228
same,Mean plaque count,LP-BM5 MuLV; 1 × 10^-8 M,246
same,"Plaque count, replicate #1",LP-BM5 MuLV; 1 × 10^-8 M,222
same,"Plaque count, replicate #2",LP-BM5 MuLV; 1 × 10^-8 M,204
same,"Plaque count, replicate #3",LP-BM5 MuLV; 1 × 10^-8 M,311
same,inhibition at 100 µM,LP-BM5 MuLV; 1 × 10^-4 M,11%
same,inhibition at 10 µM,LP-BM5 MuLV; 1 × 10^-5 M,9%
same,inhibition at 1 µM,LP-BM5 MuLV; 1 × 10^-6 M,11%
same,inhibition at 0.1 µM,LP-BM5 MuLV; 1 × 10^-7 M,27%
same,inhibition at 0.01 µM,LP-BM5 MuLV; 1 × 10^-8 M,14%
same,EC50,HIV-1,4.41 µM
